Measured values published in patent US20150011542A1, “Methods of Treating Adverse Intestinal Effects of Non-Steroidal Anti-Inflammatory Drugs” (University of Connecticut, priority 2012, published 2015).
Entries after “also recorded” stand apart in the source; their conditions may differ.

Tests used:
[1] = test system: DCF-induced small intestinal ulceration; assay: Diclofenac-induced small intestinal ulceration in mice (NBT staining, morphometry, histopathology); format: in vivo
Excerpt: Male C57BL/6J mice were obtained from The Jackson Laboratory (Bar Harbor, Me.). The mice were acclimatized for three weeks before the experiments and were 10-12 weeks of age at the start of the experiments. The animals were kept on a 14:10-hour light:dark cycle. They received mouse chow (Teklad Global Rodent Diet, Harlan Laboratories, Boston, Mass.) and water ad libitum. All studies were approved by the Institutional Animal Care and Use Committee of the University of Connecticut. […] All animals were treated at five hours before the start of the dark cycle. […] Control animals received methyl cellulose and/or Solutol HS-15.
(§1) Enteropathy was assessed and graded as described previously (Ramirez-Alcantara et al., Am. J. Physiol. (Gastrointest. Liver Physiol.), 297:G990-G998 (2009)). Briefly, mice were sacrificed by CO2 inhalation at 18 hours post-DCF (when the development of mucosal injury was maximal). A midline incision was made and blood was obtained via cardiac puncture. Serum was prepared and frozen at −80° C. until use for analysis. The entire small intestine (from the gastroduodenal junction to the ileocecal junction) was removed and opened longitudinally along the anti-mesenteric side. The tissue was rinsed in cold PBS and incubated for 15 minutes in 1 mM nitroblue tetrazolium (NBT) solution containing 16 mM HEPES-NaOH, 125 mM NaCl buffer, 3.5 mM KCl, and 10 mM glucose. Next, the tissues were fixed in 10% zinc formalin for 24 hours, washed, and transferred to 70% ethanol. The intestine was metrically divided into four quartiles of equal length and evaluated at 10× magnification for quantitative and qualitative analysis of mucosal injury, and the lesions were assigned to the respective quartiles. The following scoring system was used: 0, no apparent lesions; 1, small erosions or ulcers (<0 1 mm); 2, medium ulcers (0.1-0.8 mm); 3, large confluent ulcers (>0.8 mm) In addition, the total area of the lesions was quantified by Image J software. The formalin-fixed tissue was embedded in paraffin, and 5-μm sections were stained with hematoxylin/eosin for histopathological evaluation. Serum activity of alkaline phosphatase (ALP) was measured with a kinetic colorimetric kit (BioAssay Systems, Hayward, Calif.).

[2] = mouse, in vivo, ip, 60 mg/kg
[3] = cited from earlier work
in vivo = conditions: male, C57BL/6, mouse, 60 mg/kg
[4] = humans, cited from earlier work
[5] = Pharmacokinetic profiling of diclofenac in mice with or without Inh-1 pretreatment; conditions: male, C57BL/6, mouse, in vivo, ip, 60 mg/kg
E. coli β-glucuronidase = biological target: T1, E. coli β-glucuronidase (Escherichia coli, UniProt P05804); assay: Inhibition of E. coli β-glucuronidase cleavage of diclofenac 1-β-O-acyl glucuronide (HPLC-UV of DCF product); format: biochemical
T1 construct: made in house

[6] = test system: serum alkaline phosphatase (ALP) activity; assay: Serum alkaline phosphatase activity as biomarker of enteropathy; format: in vivo, mice; conditions: Inh-1 pretreatment; 18 h post-DCF
Experimental: as §1, with “(Ramirez-[…]” for “(Ramirez-Alcantara”, “297:[…]-[…]” for “297:G990-G998”, “-80°” for “−80°”, “Next, the tissues were fixed in 10% zinc formalin for 24 hours, washed, and transferred to 70% ethanol.” left out, “The following scoring system was used: 0, no apparent lesions; 1, small erosions or ulcers (<0 1 mm); 2, medium ulcers (0.1-0.8 mm); 3, large confluent ulcers (>0.8 mm) In addition, the total area of the lesions was quantified by Image J software.” left out

T1 sequence (P05804 whole entry): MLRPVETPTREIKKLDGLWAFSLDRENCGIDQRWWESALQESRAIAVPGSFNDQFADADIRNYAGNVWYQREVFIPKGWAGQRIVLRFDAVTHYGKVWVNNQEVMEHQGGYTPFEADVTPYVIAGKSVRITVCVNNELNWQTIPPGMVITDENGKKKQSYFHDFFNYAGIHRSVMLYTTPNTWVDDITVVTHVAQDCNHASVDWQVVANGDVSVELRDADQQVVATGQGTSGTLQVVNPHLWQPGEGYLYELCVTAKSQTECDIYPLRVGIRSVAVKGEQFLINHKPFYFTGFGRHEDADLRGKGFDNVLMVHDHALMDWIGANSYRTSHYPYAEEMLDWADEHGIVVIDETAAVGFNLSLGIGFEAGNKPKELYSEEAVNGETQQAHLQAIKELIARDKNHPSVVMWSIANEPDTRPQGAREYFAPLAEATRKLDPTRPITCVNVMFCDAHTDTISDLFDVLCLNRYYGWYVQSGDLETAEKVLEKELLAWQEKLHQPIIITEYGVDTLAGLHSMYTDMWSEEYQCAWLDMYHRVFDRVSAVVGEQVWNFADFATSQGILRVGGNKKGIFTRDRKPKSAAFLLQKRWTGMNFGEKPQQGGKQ

O=C(O)Cc1ccccc1Nc1c(Cl)cccc1Cl [Diclofenac, diclofenac]
small intestinal ulceration caused by DCF alone ([1]; DCF 60 mg/kg ip, single dose, 18 h): developed typical nitroblue tetrazolium-(NBT-) positive areas of ulceration in the jejunum and ileum
apparent Cmax [2]: high micromolar range
[14C]-DCF equivalents appearing in bile ([3]; during 60 minutes after intravenous 5 mg/kg in mice): 42%
Tmax (in vivo): 9.6 min
AUC(0-t) (in vivo; ip): 208 µg·h/mL
Cmax (in vivo; ip): 265 µg/mL
Tmax (in vivo; ip): 10 min
total DCF clearance in the form of glucuronides ([4]; including AGs of 4′-hydroxy-DCF): approximately 75%
DCF excreted via bile ([4]; initial studies): 10-20%
half-life [5]: 169 min

O=C(Cc1ccccc1Nc1c(Cl)cccc1Cl)O[C@@H]1O[C@H](C(=O)O)[C@@H](O)[C@H](O)[C@H]1O [DCF-AG, diclofenac 1-β-O-acyl glucuronide]
conversion of DCF-AG to its aglycone by purified enzyme (substrate) (E. coli β-glucuronidase; various concentrations, data not shown): converted DCF-AG (various concentrations) to its aglycone
amount of biliary DCF-AG relative to parent DCF ([3]; gallbladder-cannulated mice): 117 fold
amount of biliary DCF-AG relative to ring-hydroxylated DCF ([3]; gallbladder-cannulated mice): 22 fold
amount of DCF-AG in bile ([3]; mice): approximately 4 % of the dose

CCOc1ccc(NC(=S)N(CCO)Cc2cc3cc(C)cc(C)c3[nH]c2=O)cc1 [Inh-1, ((6,8-dimethyl-2-oxo-1,2-dihydroquinolin-3-yl)methyl)-3-(4-ethoxyphenyl)-1-(2-hydroxyethyl)thiourea]
inhibition of product (free DCF) formation (E. coli β-glucuronidase; increasing Inh-1 concentrations, DCF-AG 4 mM, FIG. 1B): concentration-dependent inhibition of product formation
inhibition at 100 µM (E. coli β-glucuronidase; read-out: inhibition of release of free DCF from DCF-AG): > 90%
ulcer size and number, quartiles 3 and 4 ([1]; Inh-1 10 μg/mouse po b.i.d. x2 days before DCF 60 mg/kg ip, 18 h post-DCF): greatly reduced both in size and number
histopathology: ulcers with loss of villi and inflammatory response ([1]; Inh-1 pretreatment plus DCF 60 mg/kg ip): largely prevented these changes
NBT-positive areas of ulceration, macroscopic ([1]; Inh-1 pretreatment plus DCF 60 mg/kg ip, jejunum, 18 h): absence of any large ulceration; also recorded: only few isolated and small NBT-positive areas
protection from DCF-induced acute small intestinal injury ([1]; mice, overall conclusion): significant protection
DCF-associated decrease in serum alkaline phosphatase (ALP) activity [6]: largely prevented
